Assay results from ChEMBL document CHEMBL6109142 (J Med Chem, 2025).
Activity calls are given as the source filed them. The calls are words filed in the database; no cut-off is given here.

Test system: SARS-CoV-2
Experiment: Antiviral activity against SARS-CoV-2 pseudotyped with delta spike protein infected in HEK293T cells harbouring hACE2 assessed as decrease in virus-like particle cellular entry at 10 uM preincubated with cells for 3 hrs followed by viral infection and measured after 72 hrs by ONE-Glo-Ex luciferase assay
Format: functional, organism-based
Details: Severe acute respiratory syndrome coronavirus 2, time 75.0 hrs

Structure (SMILES): CCOC(=O)[C@H]1O[C@@H]1C(=O)N[C@@H](CC(C)C)C(=O)NCCC(C)C
- Activity: Active

Structure (SMILES): CS(=O)(=O)N[C@@H](CCC(N)=O)C(=O)N[C@@H](Cc1ccccc1)C(=O)N[C@@H](CCCNC(=N)N)C(=O)c1nc2ccccc2s1
- Activity: inactive

Structure (SMILES): N=C(N)NCCC[C@H](NC(=O)[C@H](Cc1ccccc1)NC(=O)[C@H](CCC(N)=O)NC(=O)OCc1ccccc1)C(=O)c1nccs1
- Activity: inactive

Structure (SMILES): CN(C)C(=O)COC(=O)Cc1ccc(OC(=O)c2ccc(NC(=N)N)cc2)cc1 [CAMOSTAT]
- Activity: inactive
